Assay results as given in article PMC3582601, “New analogues of 13-hydroxyocatdecadienoic acid and 12-hydroxyeicosatetraenoic acid block human blood platelet aggregation and cyclooxygenase-1 activity” (Chemistry Central Journal, 2012).
Like-named read-outs stand apart in the source and are kept apart here.

What was measured:
human washed platelets [1] = experiment: Platelet aggregation triggered by arachidonic acid (light transmittance aggregometry); format: cell-based; settings: for Effect on arachidonic acid-dependent platelet aggregation: 25 μM arachidonic acid, human washed platelets; for Plt aggregation IC50 ± S.E.M / IC50: human washed platelets 0.4 x 10^9 plt/ml, inhibitor 1 min before 25 μM arachidonic acid, n = 3–4; for IC50: read-out: Plt aggregation IC50 ± S.E.M
Description: Figure 2 Aggregation curves of inhibitory compounds. Platelet aggregation was performed on human washed platelets. Platelets (0.4 × 10^9 plt/ml) were treated with increasing concentrations of each inhibitor for 1 min prior to the addition of 25 μM of arachidonic acid for 2 min. Results represent aggregation curves of compound 3 (A), compound 4 (B), compound 7 (C), compound 8 (D), and compound 9 (E). Aggregation curves are representative of at least 4 experiments with similar results.
Slopes of aggregation curves were analyzed by Grafit 7 software and inhibition curves were obtained. (A) represents compounds of type I and (B) compounds of type II. […] Results correspond to mean ± S.E.M. for 3–5 experiments.
(§1) Venous blood was obtained from healthy volunteers who had not ingested any drugs for the last 14 days and after informed consent in accordance with the Institutional Review Board (IRB) of the American University of Beirut (Approval # BioCh.AH.03). Washed platelets were prepared as described previously. Briefly, 20 ml of peripheral blood was withdrawn on ACD-C (1 volume for 9 volumes of blood) and centrifuged at 120 g for 15 min at room temperature (RT) to obtain platelet-rich plasma. Platelet-rich plasma was further centrifuged at 1,200 g for 15 min at RT, and the platelet pellet obtained was washed by Tyrode buffer solution containing 0.1 μM of PGE1 and further centrifuged at 1,200 g for 15 min at RT. […] Aggregation of washed-platelets was determined using light transmittance aggregometry (Chrono-Log Corp., Havertown, PA). 400 μl of platelets (0.4 x 10^9plt/ml) were preincubated for 1 min at 37 °C in the absence or presence of inhibitors prior to the addition of 25 μM of arachidonic acid, which was controlled as optimal in our conditions. In some experiments, platelets were triggered with 1 μM U46619, a TX receptor agonist, or 0.5 μg/ml collagen, a concentration we checked in our conditions to induce COX-dependent platelet aggregation. TXB2 was measured in the supernatant by enzyme immunoassay.
(§2) Aggregation data were expressed after defining the slope for each aggregation curve, which better reflects the rate of the platelet reaction, using the Born’s method. Curve fitting and calculation of the IC50 values were done using Grafit 7 software (Erithacus software, Staines, UK). Results of TXB2 and PGE2 measurement were expressed as the mean ± S.E.M. for at least 3 different experiments and statistical analysis was performed using Sigma Plot (Systat Software Inc., San Jose, CA). Autoradiograms obtained from western blot analyses were scanned using Epson 1680 pro scanner and densitometric analysis was performed using Scion Image (Scion Corporation, MD).

human COX-1 = target: T1, human COX-1 (Homo sapiens, UniProt P23219); experiment: COX-1 activity (PGE2 by enzyme immunoassay) in COS-7 cells overexpressing human COX-1; format: cell-based; settings: COS-7 cells overexpressing human COX-1, 30 min compound then 25 μM arachidonic acid 30 min, n = 3-4, read-out: COX-1 activity IC50 ± S.E.M
T1 construct: expressed in transfected cells; host or cells: COS-7
Description: Figure 4 Inhibition of COX-1 activity. Human COX-1 was overexpressed in COS-7 cells. […] PGE2 was measured in the supernatant by enzyme immunoassay. Results were expressed as percentage of PGE2 in arachidonic acid treated samples which was attributed a value of 100. Fitting of curves was done using Grafit software. Results correspond to mean ± S.E.M. for 3 experiments. […] Insert represents Western blot analysis of COX-1 using selective monoclonal COX-1 in untransfected and pcDNA3-COX-1transfected cells.
as §2

thromboxane receptor = target: T2, thromboxane receptor (Homo sapiens, UniProt P21731); experiment: Platelet aggregation in response to TX receptor agonist U46619; format: cell-based; settings: 50 μM compound, 1 μM U46619
T2 construct: Venous blood was obtained from healthy volunteers; endogenous in cells; host or cells: washed human blood platelets
T2 sequence (P21731 1-343): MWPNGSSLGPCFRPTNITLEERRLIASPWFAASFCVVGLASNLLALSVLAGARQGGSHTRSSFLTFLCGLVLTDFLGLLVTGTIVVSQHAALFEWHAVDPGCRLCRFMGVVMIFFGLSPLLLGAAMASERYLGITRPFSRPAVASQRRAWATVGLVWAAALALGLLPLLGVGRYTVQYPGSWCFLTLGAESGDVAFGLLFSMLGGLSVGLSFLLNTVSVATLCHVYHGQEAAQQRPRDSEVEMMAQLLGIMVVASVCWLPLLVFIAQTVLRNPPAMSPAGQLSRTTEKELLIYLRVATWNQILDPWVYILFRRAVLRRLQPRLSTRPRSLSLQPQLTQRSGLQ
Description: Figure 7 Effect of inhibitory compounds on platelet aggregation in response to TX receptor agonist, U46619. Platelets (0.4x 10^9 plt/ml) were pretreated with 50 μM of inhibitory compounds 3, 4, 7, 8 and 9 then triggered with 1 μM U46619, a thromboxane receptor agonist. Aggregation curves of compounds of type I (A) and type II (B) are representative of 2 experiments with similar results.
as §1

[2] = system: COS-7 cells overexpressing COX-1; experiment: WST-1 viability assay; settings: 25 and 50 μM
Description: We used COS-7 cells overexpressing human COX-1. […] In these cells which express only COX-1, arachidonic acid is metabolized into prostaglandin (PG) H2 which will consequently breakdown into PGE2. Measurement of PGE2 under these conditions will reflect COX-1 activity [18, 19].
COS-7 cells were grown using DMEM-medium containing 10% fetal bovine serum (FBS). Cells were transfected in suspension with pcDNA3-COX-1 plasmid using FuGENE® 6 transfection reagent at a ratio of 3:1 (FuGENE: DNA, v/w) and then cultured in DMEM media + 10% FBS in 12-well plates. […] PGE2 was measured in the supernatants by enzyme immunoassay [23]. Cells were washed twice with PBS and lysed in lysis buffer. […] Briefly, SDS polyacrylamide electrophoresis was performed using 8% gels followed by protein transfer using a semi-dry transfer machine.

human washed platelets [3] = experiment: Platelet aggregation induced by collagen; format: cell-based; settings: 0.5 μg/ml collagen
Description: Figure 6 Effect of inhibitory compounds on platelet aggregation and TXB2 level formation in response to collagen. […] TXB2 levels were measured in the supernatant of platelets (C). Results represent 3 experiments.
as §1

T1 sequence (P23219 24-599): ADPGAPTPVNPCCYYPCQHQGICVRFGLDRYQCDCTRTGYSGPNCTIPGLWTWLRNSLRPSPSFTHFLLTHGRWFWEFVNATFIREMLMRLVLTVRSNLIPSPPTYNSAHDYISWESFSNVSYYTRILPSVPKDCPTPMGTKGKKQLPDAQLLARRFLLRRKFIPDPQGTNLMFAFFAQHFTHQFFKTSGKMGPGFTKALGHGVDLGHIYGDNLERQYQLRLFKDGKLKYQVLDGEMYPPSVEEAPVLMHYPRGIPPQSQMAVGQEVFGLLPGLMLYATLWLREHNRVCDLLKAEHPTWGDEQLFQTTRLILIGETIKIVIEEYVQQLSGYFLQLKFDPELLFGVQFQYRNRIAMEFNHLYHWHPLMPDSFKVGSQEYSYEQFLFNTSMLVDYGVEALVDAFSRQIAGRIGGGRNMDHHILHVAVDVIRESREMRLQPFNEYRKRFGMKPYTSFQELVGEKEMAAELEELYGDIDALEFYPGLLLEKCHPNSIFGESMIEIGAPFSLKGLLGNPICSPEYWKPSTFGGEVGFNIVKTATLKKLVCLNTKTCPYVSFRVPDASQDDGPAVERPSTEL

SMILES: CCCCCC(O)c1cccc(C=NO)c1 (stereo not drawn) [Compound 1]
- Effect on arachidonic acid-dependent platelet aggregation (human washed platelets [1]): no inhibitory effect
- Plt aggregation IC50 ± S.E.M (human washed platelets [1]): No inhibition

SMILES: COc1cc(C(C)(O)c2ccccc2)ccc1O (stereo not drawn) [Compound 9]
- IC50 (human COX-1): 8.1 ± 1.7 µM
- Thromboxane receptor-dependent platelet aggregation (thromboxane receptor): None of the compounds 3, 4, 7, 8 and 9 were able to act
- IC50 (human washed platelets [1]): 11.3 ± 4.8 µM
- Toxicity in WST-1 viability assay [2]: absence of toxicity
- Platelet aggregation induced by collagen (human washed platelets [3]; 50 μM compound): blocked platelet aggregation induced by collagen

SMILES: COc1cc(C(O)c2ccc(F)cc2)ccc1O (stereo not drawn) [Compound 8]
- IC50 (human COX-1): 6.5 ± 0.2 µM
- Thromboxane receptor-dependent platelet aggregation (thromboxane receptor): None of the compounds 3, 4, 7, 8 and 9 were able to act
- Effect on arachidonic acid-dependent platelet aggregation (human washed platelets [1]): significant inhibitory activities
- IC50 (human washed platelets [1]): 13.4 ± 0.5 µM
- Toxicity in WST-1 viability assay [2]: absence of toxicity
- Platelet aggregation induced by collagen (human washed platelets [3]; 50 μM compound): blocked platelet aggregation induced by collagen

SMILES: CCCCCC(O)c1ccc(O)c(OC)c1 (stereo not drawn) [Compound 3]
- IC50 (human COX-1): 2.2 ± 0.7 µM
- Thromboxane receptor-dependent platelet aggregation (thromboxane receptor): None of the compounds 3, 4, 7, 8 and 9 were able to act
- IC50 (human washed platelets [1]): 7.5 ± 0.8 µM
- Toxicity in WST-1 viability assay [2]: absence of toxicity
- Platelet aggregation induced by collagen (human washed platelets [3]; 50 μM compound): blocked platelet aggregation induced by collagen

SMILES: COc1cc(C(O)C2CCCC2)ccc1O (stereo not drawn) [Compound 6]
- Effect on arachidonic acid-dependent platelet aggregation (human washed platelets [1]): loss of the inhibitory activity
- IC50 (human washed platelets [1]): 41.2 ± 0.7 µM

SMILES: COc1cc(C(O)c2ccccc2)ccc1O (stereo not drawn) [Compound 7]
- IC50 (human COX-1): 1.3 ± 0.5 µM
- Thromboxane receptor-dependent platelet aggregation (thromboxane receptor): None of the compounds 3, 4, 7, 8 and 9 were able to act
- Effect on arachidonic acid-dependent platelet aggregation (human washed platelets [1]): significant inhibitory activities
- IC50 (human washed platelets [1]): 8.5 ± 1.2 µM
- Toxicity in WST-1 viability assay [2]: absence of toxicity
- Platelet aggregation induced by collagen (human washed platelets [3]; 50 μM compound): blocked platelet aggregation induced by collagen

SMILES: CCCCCCCCCC(O)c1ccc(O)c(OC)c1 (stereo not drawn) [Compound 5]
- Effect on arachidonic acid-dependent platelet aggregation (human washed platelets [1]): loss of the inhibitory activity
- IC50 (human washed platelets [1]): 97.6 ± 83.5 µM

SMILES: CC(C)Cc1ccc(C(C)C(=O)O)cc1 (stereo not drawn) [Ibuprofen, reference compound]
- IC50 (human washed platelets [1]; Platelet): 0.5 ± 0.11 µM
- Platelet aggregation induced by collagen (human washed platelets [3]; 25 μM ibuprofen): strongly inhibited

SMILES: CCCCCC(O)c1cccc(C(=O)O)c1 (stereo not drawn) [Compound 2]
- Effect on arachidonic acid-dependent platelet aggregation (human washed platelets [1]): no inhibitory effect
- Plt aggregation IC50 ± S.E.M (human washed platelets [1]): No inhibition

SMILES: CCCCC(O)c1ccc(O)c(OC)c1 (stereo not drawn) [Compound 4]
- IC50 (human COX-1): 12.1 ± 2.3 µM
- Thromboxane receptor-dependent platelet aggregation (thromboxane receptor): None of the compounds 3, 4, 7, 8 and 9 were able to act
- IC50 (human washed platelets [1]): 14.2 ± 5.7 µM
- Toxicity in WST-1 viability assay [2]: absence of toxicity
- Platelet aggregation induced by collagen (human washed platelets [3]; 50 μM compound): blocked platelet aggregation induced by collagen

SMILES: COc1ccc(C(O)c2ccccc2)cc1OC (stereo not drawn) [Compound 10]
- Effect on arachidonic acid-dependent platelet aggregation (human washed platelets [1]): completely abolished the inhibitory activity
- Plt aggregation IC50 ± S.E.M (human washed platelets [1]): No inhibition
